Read-outs that look alike come from different tables or passages of the source.
Columns and labels:
[1] = system: MDA-MB-468 cells; test: Soft agar anchorage-independent growth, MDA-MB-468; type: cell-based, human; details: MDA-MB-468, increasing concentrations
Protocol: For analysis of anchorage-independent growth, log-phase growing cells were trypsinized, and triplicates of 1.5 × 10^3 cells per well were seeded in regular growth medium containing 0.3% agar (Sigma) and drug added at the indicated concentrations, as previously described. The cells were allowed to incubate at 37° C for 3 weeks and fed once per week with the inhibitor before 1 mg/ml MTT (Sigma) solution was added overnight to facilitate colony counting. Colonies were scored and counted according to size, as previously described.

[2] = system: MDA-MB-468 tumor xenografts; test: MDA-MB-468 tumor xenografts in nude mice; type: in vivo; details: 50 mpk i.p. daily for 14 days
Protocol: (§1) Female nude mice (Charles River Laboratories, Wilmington, MA) were maintained and treated in accordance with the Institutional Animal Care and Use Committee procedures and guidelines. Exponentially growing MDA-MB-468 cells were harvested via trypsinization, pelleted at 400 g for 5 min. Cell pellets were re-suspended in DPBS (Invitrogen) at 10 x10^6 cells per 200 μl, and injected into right flank of mice. The tumor xenografts were monitored with an electronic caliper measurements and tumor volume (V) was calculated using the formula V= (W × L^2)/2, where width is the largest diameter and length is the smallest diameter. When the tumors reached ~ 250 mm^3, the animals were randomized and treatment schedules were implemented. Treatments consisted of intraperitoneal (i.p.) injections of vehicle control (50% polyethylene glycol (PG) + 15% 2-hydroxypropyl-beta-cyclodextrin (HPCD) (n=5) or AJI-100 (n=6) at 50 mg/kg, everyday for 14 days.

[3] = system: MDA-MB-468 cells; test: Matrigel Transwell invasion, MDA-MB-468; type: cell-based, human; details: MDA-MB-468, 5 μM; for inhibition at 5 µM: Homo sapiens
Protocol: Cells were transfected with Aurora A and JAK2 for 48 h or with siRNA for 72 h or treated with the compounds for 24 h and then were trypsinized and resuspended in serum-free medium and placed in the upper chamber of the Matrigel-coated (0.8 μg/μL, BD Biosciences, San Diego, CA) Transwell insert (from 2 to 5 × 10^4 cells/well) and with 0.5% DMSO or the compounds at the indicated dose. Medium containing 10%FBS was placed in the lower chamber. […] Invading cells in the membrane were fixed with 100% methanol and stained with fresh prepared 0.2% crystal violet. Noninvasive cells in the upper chamber were removed by wiping the upper side of the membrane with a cotton swab, and cells located on the underside of the filter were observed and photographed under Olympus stereo microscope. The number of invading cells was counted using Image-Pro analysis software.

[4] = system: P-Histone H3 (Ser-10), Aurora B substrate; test: Western blot, phosphorylation of Histone H3 in MDA-MB-468 cells; type: cell-based, human
Protocol: (§2) Cells were plated in 6 cm dishes at a density of 2 × 10^5 cells/dish. Aurora A activity was determined by measuring autophosphorylation of Aurora A on Thr288 in cells that were synchronized by treatment with nocodazole (100 ng/mL) for 20 h prior to the treatment with Aurora inhibitors, whereas Aurora B activity was determined by measuring phosphorylation of histone H3 on Ser-10 (p-HH3). […] Cells were harvested after 2 h of treatment and processed for SDS−PAGE and Western blotting.
(§3) Cells were harvested from experiments of ectopic expression or knockdown using siRNA or the treatment with the inhibitors, washed, and then lysed using lysis buffer as previously described. The protein concentration of the lysate was measured, and the lysate was mixed with gel electrophoresis loading buffer, boiled for 5 minutes, separated by SDS-PAGE, and transferred to nitrocellulose membranes.

[5] = Mouse weights during xenograft study; type: in vivo, nude mice; details: 50 mpk i.p. daily, over the 14-day treatment period; vehicle 3.33 %
Protocol: as §1

[6] = molecular target: T1, Aurora A (Homo sapiens, UniProt O14965); test: HotSpot kinase assay (Reaction Biology), Aurora A; type: biochemical; details: in vitro, HotSpot method
T1 construct: purchased Reaction Biology Inc
T1 sequence (O14965 1-403): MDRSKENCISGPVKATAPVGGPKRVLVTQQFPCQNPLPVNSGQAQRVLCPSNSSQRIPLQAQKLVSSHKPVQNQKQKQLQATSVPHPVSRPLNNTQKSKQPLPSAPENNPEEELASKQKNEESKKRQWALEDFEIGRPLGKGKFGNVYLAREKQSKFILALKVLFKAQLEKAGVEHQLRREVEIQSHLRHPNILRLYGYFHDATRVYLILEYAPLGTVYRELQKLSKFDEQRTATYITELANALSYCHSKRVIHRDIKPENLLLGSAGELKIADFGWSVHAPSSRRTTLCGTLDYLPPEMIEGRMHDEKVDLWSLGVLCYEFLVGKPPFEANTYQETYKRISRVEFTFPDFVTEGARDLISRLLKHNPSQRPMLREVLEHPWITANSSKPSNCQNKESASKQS

[7] = system: P-STAT3 (Y705), JAK2 substrate; test: Western blot, phosphorylation of STAT3 in MDA-MB-468 cells; type: cell-based, human; details: MDA-MB-468, increasing concentrations, 2 h
Protocol: as §2, §3

[8] = system: MDA-MB-468 cells; test: Anchorage-dependent proliferation, MTT assay, MDA-MB-468; type: cell-based; details: Homo sapiens; MDA-MB-468, MTT, 48 h
Protocol: Cells were cultured in 96 well plates at a density of 2,000 cells/ well. The cells with siRNA transfection or with the inhibitor treatment were monitored for viability using MTT at indicated time points. At the given time points, MTT reagent was added to the media and allowed to incubate for 3 h at 37° C in a humidified incubator at 5% CO2. The medium was then removed and MTT crystals were dissolved in DMSO (Sigma). Cell viability was quantified by reading the plates at an absorbance of 540 nm on a μQuant microplate reader using KC4 data analysis software (Bio-Tek Instruments). The 540 nm absorbance of vehicle-treated wells was used to define 100% proliferation. Each condition was performed in replicates of six wells.

[9] = molecular target: T2, Aurora B (Homo sapiens, UniProt Q96GD4); test: HotSpot kinase assay (Reaction Biology), Aurora B; type: biochemical; details: in vitro, HotSpot method
T2 construct: purchased Reaction Biology Inc

[10] = molecular target: T3, JAK2 (Homo sapiens, UniProt O60674); test: HotSpot kinase assay (Reaction Biology), JAK2; type: biochemical; details: in vitro, HotSpot method
T3 construct: purchased Reaction Biology Inc

[11] = system: Aurora A auto-phosphorylation (Thr-288); test: Western blot, Aurora A auto-phosphorylation in nocodazole-synchronized MDA-MB-468 cells; type: cell-based, human; details: MDA-MB-468, nocodazole-synchronized, 2 h
Protocol: as §2, §3

[12] = system: MDA-MB-468 cells; test: Cell-cycle analysis by flow cytometry, MDA-MB-468; type: cell-based, human; details: MDA-MB-468, same conditions, data not shown
Protocol: To evaluate the effect of inhibitors on cell cycle progression, cells were treated with inhibitors at indicated dose or DMSO control and then harvested, fixed with 70% ethanol pretreated with RNase, and stained with propidium iodide (PI) (Sigma) as previously described for flow cytometry analysis. For the detection of apoptosis, cells were cultured for 24 h in medium with inhibitors at indicated dose or DMSO control and harvested for SDS−PAGE and Western blotting. The siRNA or drug treatment-induced apoptosis was detected by Western blot analysis of the cleavage of PARP and caspase-3.

T3 sequence (O60674 whole entry): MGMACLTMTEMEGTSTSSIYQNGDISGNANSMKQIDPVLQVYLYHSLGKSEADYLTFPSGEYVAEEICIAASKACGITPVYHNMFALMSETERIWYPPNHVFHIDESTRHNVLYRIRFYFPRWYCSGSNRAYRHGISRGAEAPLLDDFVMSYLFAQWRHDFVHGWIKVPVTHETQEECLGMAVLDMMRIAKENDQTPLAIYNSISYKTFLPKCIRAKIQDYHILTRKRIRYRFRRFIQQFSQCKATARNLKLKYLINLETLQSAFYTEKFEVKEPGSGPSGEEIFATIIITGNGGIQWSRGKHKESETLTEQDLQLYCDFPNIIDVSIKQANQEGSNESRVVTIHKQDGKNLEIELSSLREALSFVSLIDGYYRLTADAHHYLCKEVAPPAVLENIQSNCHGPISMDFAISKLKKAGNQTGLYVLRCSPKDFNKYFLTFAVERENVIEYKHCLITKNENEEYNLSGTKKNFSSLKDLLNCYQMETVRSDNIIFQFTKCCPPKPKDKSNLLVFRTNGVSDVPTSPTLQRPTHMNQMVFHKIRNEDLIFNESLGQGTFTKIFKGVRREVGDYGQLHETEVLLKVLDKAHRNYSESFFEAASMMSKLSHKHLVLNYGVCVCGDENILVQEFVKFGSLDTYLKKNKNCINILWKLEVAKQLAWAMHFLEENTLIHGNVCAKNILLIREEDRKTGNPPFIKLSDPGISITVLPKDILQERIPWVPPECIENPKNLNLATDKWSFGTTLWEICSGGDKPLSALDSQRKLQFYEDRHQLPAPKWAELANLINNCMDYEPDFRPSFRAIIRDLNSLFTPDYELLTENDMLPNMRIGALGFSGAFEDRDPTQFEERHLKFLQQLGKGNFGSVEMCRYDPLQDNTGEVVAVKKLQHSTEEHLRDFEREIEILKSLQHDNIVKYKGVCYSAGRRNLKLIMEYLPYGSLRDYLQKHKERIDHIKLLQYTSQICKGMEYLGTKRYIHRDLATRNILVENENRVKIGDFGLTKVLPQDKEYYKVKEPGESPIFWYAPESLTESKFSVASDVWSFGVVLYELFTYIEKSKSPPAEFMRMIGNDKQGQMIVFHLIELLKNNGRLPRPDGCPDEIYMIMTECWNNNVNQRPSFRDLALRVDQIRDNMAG
T2 sequence (Q96GD4 whole entry): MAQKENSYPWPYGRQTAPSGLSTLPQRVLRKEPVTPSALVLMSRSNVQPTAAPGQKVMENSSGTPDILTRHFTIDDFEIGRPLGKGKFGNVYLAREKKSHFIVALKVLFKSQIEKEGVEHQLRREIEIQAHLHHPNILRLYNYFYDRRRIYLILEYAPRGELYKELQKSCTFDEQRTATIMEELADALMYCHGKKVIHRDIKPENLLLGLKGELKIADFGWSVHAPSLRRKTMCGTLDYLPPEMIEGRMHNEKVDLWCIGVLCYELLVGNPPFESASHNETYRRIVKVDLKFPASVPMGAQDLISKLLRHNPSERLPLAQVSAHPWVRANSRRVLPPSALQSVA

Structure (SMILES): NC(=O)c1ccc(Nc2ncc(F)c(Nc3ccccc3)n2)cc1 [AJI-100]
- colony formation in soft agar [1]: inhibited colony formation
- tumor volume after 14 day treatment, representative mouse ([2]; regressed from 222, vehicle grew 211 to 357): 158 mm3
- average % change in tumor volume (regression) ([2]; vehicle grew by 40 %): 9%
- inhibition at 5 µM ([3]; 48 hr): 41.1%
- inhibition at 5 µM ([3]; 72 hr): 89.8%
- invaded cells ([3]; 48 hr, vehicle 723): 426 cells
- invaded cells ([3]; 72 hr, vehicle 1020): 104 cells
- effect on phosphorylation of Histone H3 (Ser-10) ([4]; MDA-MB-468, increasing concentrations, 2 h): decreased
- increase in mouse weights [5]: 0.04%
- IC50 [6]: 0.0054 µM
- effect on phosphorylation of STAT3 (Y705) [7]: decreased
- IC50 [8]: 3.6 µM
- IC50 [9]: 0.014 µM
- IC50 [10]: 0.051 µM

Structure (SMILES): Cc1cc(Nc2cc(N3CCN(C)CC3)nc(Sc3ccc(NC(=O)C4CC4)cc3)n2)[nH]n1 [VX-680, Tozasertib]
- effect on auto-phosphorylation of Aurora A [11]: highly effective at inhibiting
- effect on phosphorylation of Histone H3 (Ser-10) [4]: highly effective at inhibiting
- G2/M accumulation [12]: induced a significant G2/M accumulation

From publication PMC4102782, “Dual Aurora A and JAK2 kinase blockade effectively suppresses malignant transformation” (Oncotarget, 2014)
